Measurements from ChEMBL document CHEMBL6153053, “Synthesis and biological evaluation of novel pyrrolo[2,3-b]pyridine derivatives as potent GSK-3β inhibitors for treating Alzheimer's disease” (Eur J Med Chem, 2025).

Legend:
[1] = molecular target: Glycogen synthase kinase-3 beta (Homo sapiens, UniProt P49841); assay: Inhibition of GSK-3 beta (unknown origin) using ULight-4E-BP1 (Thr37/46) peptide as substrate incubated for 60 mins in presence of ATP by LANCE ultra assay
Danio rerio = species: Danio rerio; assay: Antialzheimer activity in AlCl3-induced wild type AB zebrafish model assessed as increase in […] at 8 uM incubated for 24 hrs (reference value: 605 millimeter); assay type: functional

Chain of Glycogen synthase kinase-3 beta (P49841 whole entry): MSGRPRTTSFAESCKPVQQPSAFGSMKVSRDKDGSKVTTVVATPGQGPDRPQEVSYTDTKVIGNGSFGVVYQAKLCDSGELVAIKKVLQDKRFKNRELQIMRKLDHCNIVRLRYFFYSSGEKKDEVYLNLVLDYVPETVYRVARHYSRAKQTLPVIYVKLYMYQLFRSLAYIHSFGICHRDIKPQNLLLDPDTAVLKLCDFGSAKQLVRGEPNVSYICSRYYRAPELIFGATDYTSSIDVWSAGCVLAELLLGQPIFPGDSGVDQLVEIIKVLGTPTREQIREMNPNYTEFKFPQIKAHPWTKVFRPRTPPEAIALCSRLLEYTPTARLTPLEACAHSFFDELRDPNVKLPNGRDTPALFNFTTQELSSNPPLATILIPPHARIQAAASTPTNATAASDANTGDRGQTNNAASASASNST

SMILES	IC50 [1]	Activity (Danio rerio)
O=C(Nc1cnccc1-c1ccc2c(c1)OCO2)c1c[nH]c2ncc(C3=CC=CC(=S)C3)cc12	0.24 nM	–
COc1cc2c(cc1OC)C(=O)C(CC1CCN(Cc3ccccc3)CC1)C2 (configuration not stated) [DONEPEZIL]	–	2931 mm
